Patent US12447156B2, “Treating progressive familial intrahepatic cholestasis (PFIC) with IBAT inhibitors” (ALBIREO AB, priority 2020, dated 2025)
Values after ≈ are worked out from the molar mass of the structure shown. “Also recorded” adds a separate entry of the source.

Tests used:
[1] = system: children with PFIC; assay: Pooled analysis of PEDFIC 1 and PEDFIC 2 (up to 48 weeks): safety; type: in vivo, human
Source text: This example describes key outcomes with odevixibat in children with PFIC1 (familial intrahepatic cholestasis 1 [FIC1] deficiency) or PFIC2 ((bile salt export pump [BSEP] deficiency) based on pooled analysis of data from the phase 3 PEDFIC 1 (P1; NCT03566238) and PEDFIC 2 (P2; NCT03659916) studies. This pooled analysis covers up to 48 weeks of odevixibat treatment from P1 and through the planned P2 interim data cut. The following outcomes are described: change in serum bile acids (sBAs), change in pruritus score (measured using the PRUCISION scale; range: 0-4), evaluation of growth and sleep parameters, and safety monitoring. Mean changes in autotaxin (linked to cholestatic pruritus intensity) and plasma 7α-hydroxy-4-cholesten-3-one (p-C4; marker of bile acid synthesis) levels were also summarized.

[2] = system: children with PFIC; assay: Pooled PEDFIC 1/2 subgroup analysis by concomitant UDCA and/or rifampicin; type: in vivo, human; conditions: for patients meeting criteria for serum bile acid response: after 48 weeks; for mean proportion of positive pruritus assessments (PPAs): over 48 weeks
Description: Methods: In the double-blind PEDFIC 1 study, children with PFIC1 or PFIC2 were randomized to placebo or odevixibat 40 or 120 μg/kg/day for 24 weeks. In PEDFIC 2, an ongoing, open label extension study, patients from PEDFIC 1 or new patients with any PFIC subtype received odevixibat 120 μg/kg/day. Concomitant UDCA and/or rifampicin were allowed if the patient was on a stable dose. This pooled analysis includes up to 48 weeks of odevixibat treatment from PEDFIC 1 and through the PEDFIC 2 interim data cut (37 weeks; range: 1-108 weeks). Pre-specified subgroup analyses evaluated the following outcomes based on use of UDCA and/or rifampicin: serum bile acid response (i.e., ≥70% reduction from baseline or serum bile acid levels ≤70 μmol/L after 48 weeks), proportion of positive pruritus assessments (PPAs) at the patient level (i.e., scratching score ≤1 or a ≥1-point drop from baseline on the validated PRUCISION instrument) over the 48-week treatment period, and treatment-emergent adverse events (TEAEs).

[3] = Solubility of odevixibat in water; type: physicochemical; conditions: pH 7, 37° C.
Source text: It is desirable that the use of organic solvents in the preparation of the formulation is avoided. In some embodiments, water is used as the solvent for the preparation of the formulation. […] Because of this low solubility in water, aqueous suspensions of odevixibat can contain larger agglomerates of odevixibat, which may lead to an uneven distribution of the active pharmaceutical ingredient on the cores, i.e. the cores may contain different amounts of odevixibat, which in turn impacts dose uniformity. Accordingly, in some embodiments, the aqueous suspension of odevixibat is homogeneous. In some embodiments, a homogeneous aqueous suspension of odevixibat is sprayed onto the cores.

[4] = system: children with PFIC1 or PFIC2; assay: PEDFIC 1: safety (treatment-emergent adverse events)
Source text: The primary safety analysis for PEDFIC 1 was based on the incidence of treatment-emergent adverse events (TEAEs). TEAEs were categorized by causality, severity, and seriousness for odevixibat and placebo. Other safety assessments included physical examinations, vital signs, laboratory tests, and abdominal ultrasounds (liver and spleen).
Secondary endpoints, exploratory endpoints, subgroup analyses, and safety data were summarized descriptively. Adverse events (AEs) were coded using Medical Dictionary for Regulatory Activities version 23.0.

[5] = patients not using UDCA and/or rifampicin
[6] = patients using UDCA and/or rifampicin
[7] = PEDFIC 1, 120 μg/kg/day, n = 19

CCCCC1(CCCC)CN(c2ccccc2)c2cc(SC)c(OCC(=O)N[C@@H](C(=O)N[C@@H](CC)C(=O)O)c3ccc(O)cc3)cc2S(=O)(=O)N1 [Odevixibat, 1,1-dioxo-3,3-dibutyl-5-phenyl-7-methylthio-8-(N-{(R)-α-[N-((S)-1-carboxypropyl)carbamoyl]-4-hydroxybenzyl}carbamoylmethoxy)-2,3,4,5-tetrahydro-1,2,5-benzothiadiazepine]
patients with drug-related TEAEs ([1]; pooled P1+P2, 32 of 77 patients): 42%
patients who experienced any TEAE ([1]; pooled P1+P2, 61 of 77 patients): 79%
drug-related serious TEAEs ([1]; pooled P1+P2, 77 patients): no drug-related serious TEAEs were reported
patients reporting severe TEAEs ([1]; pooled P1+P2, 77 patients): Eight
patients with TEAEs leading to treatment discontinuation ([1]; pooled P1+P2, 77 patients): Four
incidence of TEAEs ([1]; pooled P1+P2, BSEP subtype 1): 77%
incidence of TEAEs ([1]; pooled P1+P2, BSEP subtype 2): 86%
incidence of TEAEs ([1]; pooled P1+P2, patients with PFIC1, placebo in P1 85%): 80%
incidence of TEAEs ([1]; pooled P1+P2, patients with PFIC2): 80%
tolerability ([1]; pooled P1+P2, treatment for up to 48 weeks): well tolerated
patients meeting criteria for serum bile acid response ([2]; patients not using UDCA): 40%
patients meeting criteria for serum bile acid response [2, 5]: 67%
patients meeting criteria for serum bile acid response ([2]; patients not using rifampicin): 82%
patients meeting criteria for serum bile acid response ([2]; patients using UDCA): 74%
patients meeting criteria for serum bile acid response [2, 6]: 67%
patients meeting criteria for serum bile acid response ([2]; patients using rifampicin): 54%
mean proportion of positive pruritus assessments (PPAs) ([2]; patients not using UDCA): 72%
mean proportion of positive pruritus assessments (PPAs) [2, 5]: 69%
mean proportion of positive pruritus assessments (PPAs) ([2]; patients not using rifampicin): 81%
mean proportion of positive pruritus assessments (PPAs) ([2]; patients using UDCA): 65%
mean proportion of positive pruritus assessments (PPAs) [2, 6]: 66%
mean proportion of positive pruritus assessments (PPAs) ([2]; patients using rifampicin): 56%
incidence of TEAEs ([2]; patients not using UDCA): 87%
incidence of TEAEs [2, 5]: 90%
incidence of TEAEs ([2]; patients not using rifampicin): 86%
incidence of TEAEs ([2]; patients using UDCA): 77%
incidence of TEAEs [2, 6]: 78%
incidence of TEAEs ([2]; patients using rifampicin): 75%
solubility [3]: ~30 µg/mL (≈ 40.5 µM)
Any TEAE, patients ([4]; PEDFIC 1, 40 μg/kg/day, n = 23): 19 (82.6) n (%)
Drug-related TEAE, patients ([4]; PEDFIC 1, 40 μg/kg/day, n = 23): 7 (30.4) n (%)
Drug-related TEAE: ALT increased, patients ([4]; PEDFIC 1, 40 μg/kg/day, n = 23): 2 (8.7) n (%)
Drug-related TEAE: AST increased, patients ([4]; PEDFIC 1, 40 μg/kg/day, n = 23): 2 (8.7) n (%)
Drug-related TEAE: Blood bilirubin increased, patients ([4]; PEDFIC 1, 40 μg/kg/day, n = 23): 2 (8.7) n (%)
Drug-related TEAE: Diarrhea/frequent bowel movements, patients ([4]; PEDFIC 1, 40 μg/kg/day, n = 23): 2 (8.7) n (%)
Liver-related TEAEs, patients ([4]; PEDFIC 1, 40 μg/kg/day, n = 23): 5 (21.7) n (%)
Mild TEAE, patients ([4]; PEDFIC 1, 40 μg/kg/day, n = 23): 11 (47.8) n (%)
Moderate TEAE, patients ([4]; PEDFIC 1, 40 μg/kg/day, n = 23): 7 (30.4) n (%)
Serious TEAEs, patients ([4]; PEDFIC 1, 40 μg/kg/day, n = 23): 0 n (%)
Severe TEAE, patients ([4]; PEDFIC 1, 40 μg/kg/day, n = 23): 1 (4.3) n (%)
TEAEs leading to discontinuation, patients ([4]; PEDFIC 1, 40 μg/kg/day, n = 23): 0 n (%)
Any TEAE, patients [4, 7]: 16 (84.2) n (%)
Drug-related TEAE, patients [4, 7]: 7 (36.8) n (%)
Drug-related TEAE: ALT increased, patients [4, 7]: 2 (10.5) n (%)
Drug-related TEAE: AST increased, patients [4, 7]: 1 (5.3) n (%)
Drug-related TEAE: Blood bilirubin increased, patients [4, 7]: 2 (10.5) n (%)
Drug-related TEAE: Diarrhea/frequent bowel movements, patients [4, 7]: 2 (10.5) n (%)
Liver-related TEAEs, patients [4, 7]: 6 (31.6) n (%)
Mild TEAE, patients [4, 7]: 8 (42.1) n (%)
Moderate TEAE, patients [4, 7]: 6 (31.6) n (%)
Serious TEAEs, patients [4, 7]: 3 (15.8) n (%)
Severe TEAE, patients [4, 7]: 2 (10.5) n (%)
TEAEs leading to discontinuation, patients [4, 7]: 1 (5.3) n (%)
deaths, treatment-related serious AEs, TEAEs related to liver decompensation ([4]; PEDFIC 1, 24 weeks): No deaths, treatment-related serious AEs, or TEAEs related to liver decompensation occurred; also recorded: no deaths or treatment-related serious adverse events
tolerability ([4]; PEDFIC 1, 40 and 120 μg/kg/day over 24 weeks): well tolerated
patients with at least one TEAE ([4]; PEDFIC 1, all doses (35 of 42 patients)): 83%
Any TEAE, patients ([4]; PEDFIC 1, all doses, n = 42): 35 (83.3) n (%)
Drug-related TEAE, patients ([4]; PEDFIC 1, all doses, n = 42): 14 (33.3) n (%)
Drug-related TEAE: ALT increased, patients ([4]; PEDFIC 1, all doses, n = 42): 4 (9.5) n (%)
Drug-related TEAE: AST increased, patients ([4]; PEDFIC 1, all doses, n = 42): 3 (7.1) n (%)
Drug-related TEAE: Blood bilirubin increased, patients ([4]; PEDFIC 1, all doses, n = 42): 4 (9.5) n (%)
Drug-related TEAE: Diarrhea/frequent bowel movements, patients ([4]; PEDFIC 1, all doses, n = 42): 4 (9.5) n (%)
Liver-related TEAEs, patients ([4]; PEDFIC 1, all doses, n = 42): 11 (26.2) n (%)
Mild TEAE, patients ([4]; PEDFIC 1, all doses, n = 42): 19 (45.2) n (%)
Moderate TEAE, patients ([4]; PEDFIC 1, all doses, n = 42): 13 (31.0) n (%)
Serious TEAEs, patients ([4]; PEDFIC 1, all doses, n = 42): 3 (7.1) n (%)
Severe TEAE, patients ([4]; PEDFIC 1, all doses, n = 42): 3 (7.1) n (%)
TEAEs leading to discontinuation, patients ([4]; PEDFIC 1, all doses, n = 42): 1 (2.4) n (%)
TEAE vomiting ([4]; PEDFIC 1, all doses, placebo 0%): 17%
TEAE ALT increase ([4]; PEDFIC 1, all doses, placebo 5%): 14%
TEAE serum bilirubin increase ([4]; PEDFIC 1, all doses, placebo 10%): 12%
TEAE upper respiratory tract infection ([4]; PEDFIC 1, all doses, placebo 15%): 19%
TEAEs considered related to study drug by the investigator ([4]; PEDFIC 1, all doses, placebo 15.0%): 33.3%
TEAE fever ([4]; PEDFIC 1, all doses, placebo 25%): 29%
treatment-related AEs of diarrhea or frequent bowel movement ([4]; PEDFIC 1, odevixibat-treated patients): 9.5%
